# Measured values reported in patent publication US11304939B2, “Methods for treating oral cancers” (Chang Gung University, priority 2020, dated 2022).
# Key:
# [1] = test system: SAS cells; assay: MTT cell viability assay, SAS cells; assay type: cell-based; conditions: 48 hours; for cell viability / proliferation (MTT): vs vehicle control
# Procedure: (§1) For cell viability assay, approximately 5×10^4 cells were seeded into each well of a 96-well plate, and treated with vehicle control or inhibitors at the indicated concentrations for 48 hours in complete medium, followed by MTT viability assay. The absorbance was read at 540 nm in a multiwell spectrophotometer (SpectraMax M2; Molecular Devices, USA). All samples were run in triplicate. For apoptosis assay, cells were plated in 6-well dishes, and treated with vehicle control or various inhibitors at the indicated concentrations for 48 hours. Cells were then harvested, washed with PBS, and stained with 2 μl an FITC-conjugated Annexin V antibody (Invitrogen, USA) and 50 μg/ml propidium iodide (Sigma-Aldrich, USA), followed by flow cytometry analysis (Attune NxT; Invitrogen, USA) and data analysis by FlowJo software (Tree Star, Inc.).
# [2] = test system: OEC-M1 cells; assay: MTT cell viability assay, OEC-M1 cells; assay type: cell-based; conditions: 48 hours; for cell viability / proliferation (MTT): vs vehicle control
# Procedure: as §1
# [3] = test system: SAS, OC3, and OEC-M1 cells; assay: MTT cell viability assay, one range over three OSCC cell lines; assay type: cell-based; conditions: OECM1
# Procedure: as §1
# [4] = test system: SAS cells; assay: colony-forming assay, SAS cells; assay type: cell-based
# [5] = test system: OEC-M1 cells; assay: colony-forming assay, OEC-M1 cells; assay type: cell-based
# [6] = test system: OSCC cells; assay: apoptosis assay (Annexin V staining), OSCC cells; assay type: cell-based; conditions: increasing concentration
# Procedure: as §1
# [7] = test system: AKT; assay: immunoblotting of phosphorylation of AKT; assay type: cell-based; conditions: after UV exposure
# Procedure: After treatments, whole-cell lysates from each sample were prepared by lysed with RIPA lysis buffer (1% NP_40, 20 mM Tris-HCl (pH 7.5), 150 mM NaCl, 1 mM Na3VO4, 5 mM EDTA (pH 8.0), 10% glycerol, PMSF, and 0.2% protease inhibitor) for 15-30 minutes on ice, and centrifuged at 15,000×g for 20 min at 4° C. Equal amounts of protein from each sample were fractionated by SDS-PAGE, and transferred to a PVDF membrane, which was incubated with the appropriate primary antibody. Proteins were detected with HRP-conjugated secondary antibodies and ECL substrate (PerkinElmer, USA).
# In the present study, the efficacy of the PI3K inhibitors (e.g., BYL719, GDC-0941, and GSK1059615) toward eliminating OSCC cell lines (including SAS, OEC-M1, and OC3) was examined. First of all, cell proliferation assays after the PI3K inhibitors (i.e., BYL719, GDC-0941, and GSK1059615) treatments were performed, and the results were provided in FIG. 3A. […] The IC50 for BYL719 in the SAS, OC3, and OECM1 cell lines ranged from 8 to 20 μM (FIG. 3A). Another indication for measuring anti-cancer activity was by investigating the colony-forming ability of SAS and OEC-M1 cells treated with BYL719. […] The effects for PI3K inhibitors on the PI3K/AKT/mTOR signaling pathway were studied as well.
# [8] = test system: SAS cells xenograft; assay: SAS cell line-derived xenograft (OSCC CDX) tumor growth; assay type: in vivo, NOD/SCID mice
# Procedure: NOD/SCID mice and NOD.Cg-Prkdcscid Il2rgtm1Wjl/SzJ (NSG) mice were housed in an animal facility at Chang Gung University. For SAS cell line-derived xenograft (CDX) animal model, SAS cells were prepared in serum-free DMEM (5×10^6 cells per ml). SAS cell suspensions (100 μl) were injected subcutaneously into NOD/SCID mice (6-8 weeks), and tumors were established after 3-4 weeks. Once xenografts reached 300-500 mm^3, mice were randomly divided into the treatment groups or control groups. PF477736 was used at the dose of 10 or 20 mg/kg, and administered intraperitoneally 4 days/week. BYL719 was used at the dose of 25 or 50 mg/kg, and administered orally 5 days/week. Cisplatin was used at the dose of 5 mg/kg, and administered intraperitoneally 2 days/week. During the course of treatment (two to three weeks), the tumor size was monitored twice weekly, and the tumor volumes were calculated.
# [9] = test system: patient #1 PDX; assay: OSCC PDX model, patient #1, tumor growth; assay type: in vivo, NSG mice; conditions: PF477736 20 mg/kg; for growth of PDX tumors vs control: Cisplatin 5 mg/kg, combined vs control p=0.0024
# Procedure: (§2) For OSCC PDX animal model, three patients of newly diagnosed were recruited, and written consents were obtained in accordance with the protocols approved by the Institutional Review Board of Chang Gung Memorial Hospital. Patient tumor explants were prepared from surgical specimens, and engrafted into NSG mice within 2 hours. Briefly, fresh tumor tissues were rinsed in PBS containing an antibiotic-antimycotic solution (Gibco, USA), and chopped into small pieces (˜1 mm^3). Each NSG mouse was subcutaneously grafted with 50-100 mg tumors in the left flank. When tumors reached 400-500 mm^3 in size, animals were randomly assigned into control and different treatment groups. Treatments for each single drug were the same as those used in the SAS CDX model as described above. For combined treatments, for the combination therapy of Cisplatin and PF477736, Cisplatin was used at the dose of 5 mg/kg, and administered intraperitoneally 2 days/week for one week; whilst PF477736 was used at the dose of 20 mg/kg, and administered intraperitoneally 4 days/week for one week; and for the combination therapy of PF477736 and BYL719, PF477736 was used at the dose of 20 mg/kg, and administered intraperitoneally 4 days/week for one week; whilst BYL719 was used at the dose of 50 mg/kg, and administered orally 5 days/week for two weeks. Tumors were measured with calipers, and the volume was calculated as ½×length×width^2. Three PDX models in total were evaluated for response to single treatments or combined treatments. All animal experiments were approved by the Institutional Animal Care and Use Committee of Chang Gung University.
# [10] = test system: patient #2 PDX; assay: OSCC PDX model, patient #2, tumor growth; assay type: in vivo, NSG mice; conditions: PF477736 20 mg/kg; for growth of PDX tumors vs control: Cisplatin 5 mg/kg, combined vs control p=0.006
# Procedure: as §2
# [11] = test system: patient #3 PDX; assay: OSCC PDX model, patient #3, tumor growth; assay type: in vivo, NSG mice; conditions: Cisplatin 5 mg/kg, PF477736 20 mg/kg, combined vs control p=0.03
# Procedure: For OSCC PDX animal model, three patients of newly diagnosed were recruited, and written consents were obtained in accordance with the protocols approved by the Institutional Review Board of Chang Gung Memorial Hospital. Patient tumor explants were prepared from surgical specimens, and engrafted into NSG mice within 2 hours. Briefly, fresh tumor tissues were rinsed in PBS containing an antibiotic-antimycotic solution (Gibco, USA), and chopped into small pieces (˜1 mm^3). Each NSG mouse was subcutaneously grafted with 50-100 mg tumors in the left flank. When tumors reached 400-500 mm^3 in size, animals were randomly assigned into control and different treatment groups. Treatments for each single drug were the same as those used in the SAS CDX model as described above. […] Tumors were measured with calipers, and the volume was calculated as ½×length×width^2. Three PDX models in total were evaluated for response to single treatments or combined treatments. […]
# [12] = test system: SAS cells; assay: apoptosis assay (Annexin V and PI staining), SAS cells; assay type: cell-based; conditions: 48 hours
# Procedure: as §1
# [13] = test system: OC3 cells; assay: apoptosis assay (Annexin V and PI staining), OC3 cells; assay type: cell-based; conditions: 48 hours
# Procedure: as §1
# [14] = test system: OEC-M1 cells; assay: apoptosis assay (Annexin V and PI staining), OEC-M1 cells; assay type: cell-based; conditions: 48 hours
# Procedure: as §1
# [15] = target: T1, CHK1 (Homo sapiens, UniProt O14757); assay: immunoblotting of UV-induced phosphorylation of CHK1 at Ser296 in SAS cells; conditions: SAS cells after UV exposure
# T1 sequence (O14757 1-476): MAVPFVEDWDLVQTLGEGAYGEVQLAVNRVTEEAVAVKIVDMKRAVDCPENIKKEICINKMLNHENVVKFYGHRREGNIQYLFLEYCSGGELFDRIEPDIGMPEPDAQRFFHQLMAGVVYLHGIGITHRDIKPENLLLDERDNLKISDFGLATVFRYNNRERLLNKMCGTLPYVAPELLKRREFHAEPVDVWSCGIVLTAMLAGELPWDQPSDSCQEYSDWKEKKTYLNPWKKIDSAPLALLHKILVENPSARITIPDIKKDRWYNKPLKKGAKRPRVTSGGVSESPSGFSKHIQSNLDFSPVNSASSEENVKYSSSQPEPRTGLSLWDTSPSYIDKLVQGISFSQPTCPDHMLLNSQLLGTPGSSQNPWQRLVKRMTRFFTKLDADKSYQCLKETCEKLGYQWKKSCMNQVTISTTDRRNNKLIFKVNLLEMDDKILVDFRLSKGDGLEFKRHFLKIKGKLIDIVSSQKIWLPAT
# Procedure: After treatments, whole-cell lysates from each sample were prepared by lysed with RIPA lysis buffer (1% NP—40, 20 mM Tris-HCl (pH 7.5), 150 mM NaCl, 1 mM Na3VO4, 5 mM EDTA (pH 8.0), 10% glycerol, PMSF, and 0.2% protease inhibitor) for 15-30 minutes on ice, and centrifuged at 15,000×g for 20 min at 4° C. Equal amounts of protein from each sample were fractionated by SDS-PAGE, and transferred to a PVDF membrane, which was incubated with the appropriate primary antibody. Proteins were detected with HRP-conjugated secondary antibodies and ECL substrate (PerkinElmer, USA).
# On the molecular level, the biochemical effects of the three CHK1 inhibitors in SAS cells were characterized. DNA damage was first induced by UV exposure, and the CHK1 inhibitors were then applied to the injured cells.
SMILES,cell viability / proliferation (MTT) [1],cell viability / proliferation (MTT) [2],colony-forming ability [4],colony-forming ability [5],phosphorylation of AKT [7],growth of PDX tumors vs control [9],growth of PDX tumors vs control [10],growth of PDX tumors vs control [11],other results
"Cc1nc(NC(=O)N2CCC[C@H]2C(N)=O)sc1-c1ccnc(C(C)(C)C(F)(F)F)c1 [BYL719, Alpelisib]",clear reduction in proliferation,clear reduction in proliferation,compromised in a dose-dependent manner,compromised in a dose-dependent manner,specifically inhibited phosphorylation of AKT,,,,"IC50 [3]: 8 to 20 µM; cell apoptosis (Annexin V staining) [6]: gradually elevation in apoptosis; tumor growth vs control ([8]; 50 mg/kg orally 5 days/week, p=0.011): significantly suppressed tumor growth; tumor growth vs control ([9]; BYL719 50 mg/kg, monotherapy p=0.66, combined p=0.844): could not inhibit tumor growth; tumor growth vs control ([10]; BYL719 50 mg/kg, monotherapy p=0.16, combined p=0.036): slightly inhibited tumor growth"
N.N.[Cl][Pt][Cl] [Cisplatin],,,,,,partially but not significantly inhibit the growth,partially but not significantly inhibit the growth,partially but not significantly inhibit the growth,"tumor growth vs control ([8]; 5 mg/kg intraperitoneally 2 days/week, p=0.03): exhibited an ability to inhibit tumor growth"
"CS(=O)(=O)N1CCN(Cc2cc3nc(-c4cccc5[nH]ncc45)nc(N4CCOCC4)c3s2)CC1 [GDC-0941, Pictilisib]",clear reduction in proliferation,clear reduction in proliferation,,,specifically inhibited phosphorylation of AKT,,,,
"O=C1NC(=O)/C(=C/c2ccc3nccc(-c4ccncc4)c3c2)S1 [GSK1059615, (Z)-5-((4-(pyridin-4-yl)quinolin-6-yl)methylene)thiazolidine-2,4-dione]",clear reduction in proliferation,clear reduction in proliferation,,,specifically inhibited phosphorylation of AKT,,,,
"COc1cccc(OCCCN)c1-c1cc(Nc2cnc(C#N)cn2)n[nH]1 [LY2606368, Prexasertib]",dose-dependent inhibition,dose-dependent inhibition,,,,,,,
"Cn1cc(-c2[nH]c3cc(NC(=O)[C@H](N)C4CCCCC4)cc4c3c2C=NNC4=O)cn1 [PF477736, (R)-2-amino-2-cyclohexyl-N-(2-(1-methyl-1H-pyrazol-4-yl)-6-oxo-5,6-dihydro-1H-[1,2]diazepino[4,5,6-cd]indol-8-yl)acetamide]",dose-dependent inhibition,dose-dependent inhibition,significantly impaired the colony-forming ability,significantly impaired the colony-forming ability,,partially but not significantly inhibit the growth,partially but not significantly inhibit the growth,partially but not significantly inhibit the growth,"IC50 ([1]; MTT, read-out: half-maximal inhibitory concentration (IC50)): 0.12 to 0.4 µM; IC50 ([2]; OECM1, MTT, read-out: half-maximal inhibitory concentration (IC50)): 10 µM; cell apoptosis (Annexin V and PI staining) [12]: significantly exacerbated cell apoptosis; cell apoptosis (Annexin V and PI staining) [13]: significantly exacerbated cell apoptosis; cell apoptosis (Annexin V and PI staining) [14]: significantly exacerbated cell apoptosis; tumor growth vs control ([8]; 10 mg/kg intraperitoneally 4 days/week, p=0.083): could barely suppress tumor growth; tumor growth vs control ([8]; 20 mg/kg intraperitoneally 4 days/week, p=0.081): could barely suppress tumor growth; phosphorylation of CHK1 at Ser296 [15]: specifically reduce phosphorylation of CHK1"
